Key:
[1] = system: R/R non-GCB DLBCL; assay: Compound 1 monotherapy in patients with R/R non-GCB DLBCL; assay type: in vivo, human; details: for unadjusted ORR: non-GCB DLBCL
Description: A total of 121 patients with R/R non-GCB DLBCL were recruited in four Compound 1 treatment studies that were conducted at a similar time period. Two of the four studies were Compound 1 monotherapy (n=79) and two were Compound 1 combined with an anti-CD20 antibody therapy (n=42). Similar inclusion and exclusion criteria and response evaluation criteria were used across all studies. Fifty-six non-GCB patients were further subtyped by gene expression profiling (GEP) using the HTG EdgeSeq DLBCL Cell of Origin Assay. The expression of approximately 90 lymphoma-associated genes from the HTG GEP assay were analyzed by R package limma for correlation with response to Compound 1 treatment. Seventy-seven patient samples were tested by next-generation sequencing (NGS) with a panel of genes. Chi-square test was used to evaluate the correlation between mutations and the objective response rate (ORR).
Monotherapy schedule 1: Compound 1 was administered orally every day at 160 mg twice daily (BID) in 28-day cycles in patients with R/R non-GCB DLBCL.
Monotherapy schedule 2: Compound 1 was administered orally every day in each cycle at 160 mg BID in 28-day cycles in patients with R/R non-GCB DLBCL.
79 patients with non-GCB DLBCL were subjected to Compound 1 monotherapies (Monotherapy Schedule 1 or 2).

[2] = system: Non-GCB DLBCL PDX models; assay: Compound 1 efficacy (TGI) in non-GCB DLBCL PDX models by CD79B / CD79B ITAM mutation; assay type: in vivo, mice; details: p.o. 7.5 mg/kg BID
Text: DLBCL patient-derived xenografted (PDX) models were established in immunodeficient NCG (NOD-Prkdcem26Cd52Il2rgem26Cd22/NjuCrl) mice. These models were classified into GCB and non-GCB subgroups based on immunohistochemistry (IHC) staining using Hans algorithm. Non-GCB DLBCL PDX models were classified into CD79B mutant versus CD79B wildtype groups; or CD79B ITAM domain mutant (amino acid 193-210) versus CD79B ITAM domain wildtype groups. For efficacy studies, tumor tissues were inoculated subcutaneously into NCG mice. When tumors reached 100˜200 mm^3, mice were randomized into each group with 7˜10 mice/group based on tumor volume. Compound 1 was formulated with 0.5% methyl cellulose as vehicle and treatment was started on the day of randomized grouping. Compound 1 was administrated p.o., 7.5 mg/(kg body weight), BID. Tumor volumes were measured twice weekly in two dimensions using a caliper, and the volume were expressed in mm^3 using the formula:
V=0.5(a×b^2) where a and b are the long and short diameters of the tumor, respectively.
Tumor growth inhibition (TGI) was calculated using the following formula:
% TGI=100×[1−(treatmentvt−treatmentv0)/(vehiclevt−Vehiclev0)]
Treatmentvt=tumor volume of treatment group at time t.
treatmentv0=tumor volume of treatment group at time of treatment started.
Vehiclevt=tumor volume of vehicle group at time t.
Vehiclev0=tumor volume of vehicle group at time of treatment started.
P value was calculated using two tails t test.

[3] = monotherapy 160 BID Schedule 1, ABC Subtype of DLBCL Patients
[4] = monotherapy 160 BID Schedule 1, CD79B ITAM_Mut
[5] = monotherapy 160 BID Schedule 1, CD79B ITAM_WT
[6] = monotherapy 160 BID Schedule 1, CD79B_Mut
[7] = monotherapy 160 BID Schedule 1, CD79B_WT
[8] = monotherapy 160 BID Schedule 1, MYD88_L265P
[9] = monotherapy 160 BID Schedule 1, MYD88_WT
[10] = monotherapy 160 BID Schedule 1, NOTCH1_Mut
[11] = monotherapy 160 BID Schedule 1, NOTCH1_WT
[12] = monotherapy 160 BID Schedule 1, Non-GCB DLBCL Patients
[13] = monotherapy 160 BID Schedule 1, Non-GCB DLBCL Patients with Sequence Available
[14] = monotherapy 160 BID Schedule 1, Patients with Sequence Available
[15] = monotherapy 160 BID Schedule 2, ABC Subtype of DLBCL Patients
[16] = monotherapy 160 BID Schedule 2, CD79B ITAM_Mut
[17] = monotherapy 160 BID Schedule 2, CD79B ITAM_WT
[18] = monotherapy 160 BID Schedule 2, CD79B_Mut
[19] = monotherapy 160 BID Schedule 2, CD79B_WT
[20] = monotherapy 160 BID Schedule 2, MYD88_L265P
[21] = monotherapy 160 BID Schedule 2, MYD88_L265P/CD79B_Mut
[22] = monotherapy 160 BID Schedule 2, MYD88_WT
[23] = monotherapy 160 BID Schedule 2, NOTCH1_Mut
[24] = monotherapy 160 BID Schedule 2, NOTCH1_WT
[25] = monotherapy 160 BID Schedule 2, Non-GCB DLBCL Patients
[26] = monotherapy 160 BID Schedule 2, Non-GCB DLBCL Patients with Sequence Available
[27] = monotherapy 160 BID Schedule 2, Other (not MYD88_L265P/CD79B_Mut)
[28] = monotherapy 160 BID Schedule 2, Patients with Sequence Available
[29] = monotherapy Total (N = 79), ABC Subtype of DLBCL Patients
[30] = monotherapy Total (N = 79), CD79B ITAM_Mut
[31] = monotherapy Total (N = 79), CD79B ITAM_WT
[32] = monotherapy Total (N = 79), CD79B_Mut
[33] = monotherapy Total (N = 79), CD79B_WT
[34] = monotherapy Total (N = 79), MYD88_L265P
[35] = monotherapy Total (N = 79), MYD88_L265P/CD79B_Mut
[36] = monotherapy Total (N = 79), MYD88_WT
[37] = monotherapy Total (N = 79), NOTCH1_Mut
[38] = monotherapy Total (N = 79), NOTCH1_WT
[39] = monotherapy Total (N = 79), Non-GCB DLBCL Patients
[40] = monotherapy Total (N = 79), Non-GCB DLBCL Patients with Sequence Available
[41] = monotherapy Total (N = 79), Other (not MYD88_L265P/CD79B_Mut)
[42] = monotherapy Total (N = 79), Patients with Sequence Available

Structure (SMILES): C=CC(=O)N1CCC([C@@H]2CCNc3c(C(N)=O)c(-c4ccc(Oc5ccccc5)cc4)nn32)CC1 [Compound 1, (S)-7-(1-acryloylpiperidin-4-yl)-2-(4-phenoxyphenyl)-4,5,6,7-tetra-hydropyrazolo[1,5-a]pyrimidine-3-carboxamide]
- ORR ([1]; GEP-confirmed activated B-cell DLBCL, first of the two monotherapies (Schedule 1)): 53.8%
- ORR ([1]; GEP-confirmed activated B-cell DLBCL, second of the two monotherapies (Schedule 2)): 36%
- ORR [1, 3]: 53.8
- Response/Patient [1, 3]: 7/13
- ORR [1, 4]: 100.0
- Response/Patient [1, 4]: 2/2
- Difference in ORR (95% CI) ([1]; monotherapy 160 BID Schedule 1, CD79B ITAM_Mut vs CD79B ITAM_WT): 50.0
- ORR [1, 5]: 50.0
- Response/Patient [1, 5]: 4/8
- ORR [1, 6]: 75.0
- Response/Patient [1, 6]: 3/4
- Difference in ORR (95% CI) ([1]; monotherapy 160 BID Schedule 1, CD79B_Mut vs CD79B_WT): 25.0
- ORR [1, 7]: 50.0
- Response/Patient [1, 7]: 3/6
- ORR [1, 8]: 0.0
- Response/Patient [1, 8]: 0/1
- Difference in ORR (95% CI) ([1]; monotherapy 160 BID Schedule 1, MYD88_L265P vs MYD88_WT): −66.7
- ORR [1, 9]: 66.7
- Response/Patient [1, 9]: 6/9
- ORR [1, 10]: 100.0
- Response/Patient [1, 10]: 1/1
- Difference in ORR (95% CI) ([1]; monotherapy 160 BID Schedule 1, NOTCH1_Mut vs NOTCH1_WT): 44.4
- ORR [1, 11]: 55.6
- Response/Patient [1, 11]: 5/9
- ORR [1, 12]: 31.6
- Response/Patient [1, 12]: 12/38
- ORR [1, 13]: 60.0
- Response/Patient [1, 13]: 6/10
- ORR ([1]; monotherapy 160 BID Schedule 1, Other (not MYD88_L265P/CD79B_Mut)): 60.0
- ORR [1, 14]: 63.6
- Response/Patient [1, 14]: 7/11
- ORR [1, 15]: 36.0
- Response/Patients [1, 15]: 9/25
- ORR [1, 16]: 46.2
- Response/Patients [1, 16]: 6/13
- Difference in ORR (95% CI) ([1]; monotherapy 160 BID Schedule 2, CD79B ITAM_Mut vs CD79B ITAM_WT): 17.6
- ORR [1, 17]: 28.6
- Response/Patients [1, 17]: 6/21
- ORR [1, 18]: 46.2
- Response/Patients [1, 18]: 6/13
- Difference in ORR (95% CI) ([1]; monotherapy 160 BID Schedule 2, CD79B_Mut vs CD79B_WT): 17.6
- ORR [1, 19]: 28.6
- Response/Patients [1, 19]: 6/21
- ORR [1, 20]: 40.0
- Response/Patients [1, 20]: 4/10
- Difference in ORR (95% CI) ([1]; monotherapy 160 BID Schedule 2, MYD88_L265P vs MYD88_WT): 6.7
- ORR [1, 21]: 50.0
- Response/Patients [1, 21]: 3/6
- Difference in ORR (95% CI) ([1]; monotherapy 160 BID Schedule 2, MYD88_L265P/CD79B_Mut vs Other): 17.9
- ORR [1, 22]: 33.3
- Response/Patients [1, 22]: 8/24
- ORR [1, 23]: 100.0
- Response/Patients [1, 23]: 2/2
- Difference in ORR (95% CI) ([1]; monotherapy 160 BID Schedule 2, NOTCH1_Mut vs NOTCH1_WT): 68.8
- ORR [1, 24]: 31.3
- Response/Patients [1, 24]: 10/32
- ORR [1, 25]: 29.3
- Response/Patients [1, 25]: 12/41
- ORR [1, 26]: 35.3
- Response/Patients [1, 26]: 12/34
- ORR [1, 27]: 32.1
- Response/Patients [1, 27]: 9/28
- ORR [1, 28]: 35.3
- Response/Patients [1, 28]: 12/34
- ORR [1, 29]: 42.1
- Response/Patients [1, 29]: 16/38
- ORR [1, 30]: 53.3
- Response/Patients [1, 30]: 8/15
- Difference in ORR (95% CI) ([1]; monotherapy Total (N = 79), CD79B ITAM_Mut vs CD79B ITAM_WT): 18.9
- ORR [1, 31]: 34.5
- Response/Patients [1, 31]: 10/29
- ORR [1, 32]: 52.9
- Response/Patients [1, 32]: 9/17
- Difference in ORR (95% CI) ([1]; monotherapy Total (N = 79), CD79B_Mut vs CD79B_WT): 19.6
- ORR [1, 33]: 33.3
- Response/Patients [1, 33]: 9/27
- ORR [1, 34]: 36.4
- Response/Patients [1, 34]: 4/11
- Difference in ORR (95% CI) ([1]; monotherapy Total (N = 79), MYD88_L265P vs MYD88_WT): −6.1
- ORR [1, 35]: 50.0
- Response/Patients [1, 35]: 3/6
- Difference in ORR (95% CI) ([1]; monotherapy Total (N = 79), MYD88_L265P/CD79B_Mut vs Other): 10.5
- ORR [1, 36]: 42.4
- Response/Patients [1, 36]: 14/33
- ORR [1, 37]: 100.0
- Response/Patients [1, 37]: 3/3
- Difference in ORR (95% CI) ([1]; monotherapy Total (N = 79), NOTCH1_Mut vs NOTCH1_WT): 63.4
- ORR [1, 38]: 36.6
- Response/Patients [1, 38]: 15/41
- ORR [1, 39]: 30.4
- Response/Patients [1, 39]: 24/79
- ORR [1, 40]: 40.9
- Response/Patients [1, 40]: 18/44
- ORR [1, 41]: 39.5
- Response/Patients [1, 41]: 15/38
- ORR [1, 42]: 42.2
- Response/Patients [1, 42]: 19/45
- unadjusted ORR ([1]; first of the two monotherapies (Schedule 1)): 31.6%
- unadjusted ORR ([1]; second of the two monotherapies (Schedule 2)): 29.3%
- ORR ([1]; two monotherapies, NOTCH1 mutant (n=3)): 100%
- ORR ([1]; two monotherapies, non-GCB DLBCL with CD79B mutations (n=17)): 52.9%
- ORR ([1]; two monotherapies, other population (without CD79B mutations)): 33.3%
- ORR ([1]; two monotherapies, patients without NOTCH1 mutation): 36.6%
- TGI (mean±SD) ([2]; CD79B ITAM domain mutation non-GCB DLBCL models): 96.00±28.83%
- TGI (mean±SD) ([2]; CD79B mutation non-GCB DLBCL models): 87.5±33.14%
- TGI (mean±SD) ([2]; CD79B wildtype non-GCB DLBCL models): 49.44±42.36%

Source: patent US20230089557A1, “METHODS OF TREATING DLBCL USING BTK INHIBITORS AND COMBINATIONS THEREOF” (BEIGENE SWITZERLAND GMBH, priority 2020, published 2023)
